Legend:
[1] = Selectivity ratio of IC50 for antiproliferative activity against human A549/Taxol cells to IC50 for antiproliferative activity against human A549 cells; type: functional
[2] = system: A549; test: Antiproliferative against human A549 cells assessed as inhibition of cell viability incubated for 48 hrs by CCK-8 assay; type: functional, cell-based; conditions: A549, 48 h
[3] = system: A549/TR; test: Antiproliferative activity against human A549/Taxol cells assessed inhibition of cell viability incubated for 48 hrs by CCK-8 assay; type: functional, cell-based
[4] = system: A549/TR; test: Inhibition of cell invasion in human A549/Taxol cells assessed as invasive cells at 5 uM incubated for 24 hrs by transwell invasion assay relative to control; type: functional; set-up: scale not given: the % may be the effect or the level left
[5] = system: A549/TR; test: Inhibition of cell migration in human A549/Taxol cells assessed as wound closure at 5 uM measured after 24 hrs by scratch-wound healing assay relative to control; type: functional; set-up: scale not given: the % may be the effect or the level left
[6] = molecular target: T1, Cytochrome P450 1A2 (Homo sapiens, UniProt P05177); test: Inhibition of human recombinant CYP1A2 using 7-ethoxyresorufin as substrate incubated under dark condition for 45 mins in presence of NADPH by EROD fluorescence assay; type: ADME
T1 sequence (P05177 whole entry): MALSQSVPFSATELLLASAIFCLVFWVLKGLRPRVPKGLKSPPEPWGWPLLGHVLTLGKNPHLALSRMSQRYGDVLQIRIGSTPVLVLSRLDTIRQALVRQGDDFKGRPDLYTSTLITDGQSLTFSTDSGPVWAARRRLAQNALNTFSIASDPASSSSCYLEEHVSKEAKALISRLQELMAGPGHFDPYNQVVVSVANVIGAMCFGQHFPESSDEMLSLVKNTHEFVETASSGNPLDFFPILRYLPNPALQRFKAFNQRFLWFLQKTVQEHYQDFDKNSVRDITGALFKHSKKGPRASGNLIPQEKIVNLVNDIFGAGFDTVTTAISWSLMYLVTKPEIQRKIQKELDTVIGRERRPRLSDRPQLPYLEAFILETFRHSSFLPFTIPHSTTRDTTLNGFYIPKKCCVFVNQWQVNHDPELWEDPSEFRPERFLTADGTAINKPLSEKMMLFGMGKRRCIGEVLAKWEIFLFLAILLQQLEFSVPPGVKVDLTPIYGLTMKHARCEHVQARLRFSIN

[7] = Cytotoxicity against HUVEC assessed as inhibition of cell viability incubated for 48 hrs by CellTiter Glo assay; type: toxicity, cell-based; conditions: human, HUVEC cells
[8] = molecular target: T2, CYP1B1 (Homo sapiens, UniProt Q16678); test: Inhibition of human recombinant CYP1B1 using 7-ethoxyresorufin as substrate at 100 uM incubated under dark condition for 30 mins in presence of NADPH by EROD fluorescence assay relative to control; type: ADME; conditions: recombinant CYP1B1, probe 7-ethoxyresorufin
T2 sequence (Q16678 whole entry): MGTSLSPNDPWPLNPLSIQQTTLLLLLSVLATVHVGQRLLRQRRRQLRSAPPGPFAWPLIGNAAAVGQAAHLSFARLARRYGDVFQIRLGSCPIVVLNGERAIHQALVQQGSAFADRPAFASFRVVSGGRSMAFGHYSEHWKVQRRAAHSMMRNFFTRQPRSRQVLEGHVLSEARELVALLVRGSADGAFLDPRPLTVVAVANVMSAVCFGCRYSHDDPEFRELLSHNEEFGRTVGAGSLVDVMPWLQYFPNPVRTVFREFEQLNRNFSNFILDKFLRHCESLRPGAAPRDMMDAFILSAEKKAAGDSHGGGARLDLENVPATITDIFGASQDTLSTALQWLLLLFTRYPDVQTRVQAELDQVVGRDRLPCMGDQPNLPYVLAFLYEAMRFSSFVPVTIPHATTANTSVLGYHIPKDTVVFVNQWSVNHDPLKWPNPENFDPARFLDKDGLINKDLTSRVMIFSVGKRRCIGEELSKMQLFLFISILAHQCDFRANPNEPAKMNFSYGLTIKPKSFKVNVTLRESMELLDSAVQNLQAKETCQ

[9] = Cytotoxicity against human BEAS-2B cells assessed as inhibition of cell viability incubated for 48 hrs by CCK-8 assay; type: toxicity, cell-based
[10] = Stability in human plasma assessed as compound remaining at 100 uM measured after 15 mins by LC-MS/MS analysis; type: ADME, cell-free; conditions: read-out: Stability
[11] = Stability in human plasma assessed as compound remaining at 100 uM measured after 120 mins by LC-MS/MS analysis; type: ADME, cell-free; conditions: read-out: Stability
[12] = Stability in human plasma assessed as compound remaining at 100 uM measured after 5 mins by LC-MS/MS analysis; type: ADME, cell-free; conditions: read-out: Stability
[13] = Stability in human plasma assessed as compound remaining at 100 uM measured after 60 mins by LC-MS/MS analysis; type: ADME, cell-free; conditions: read-out: Stability
[14] = Stability in human plasma assessed as compound remaining at 100 uM measured after 30 mins by LC-MS/MS analysis; type: ADME, cell-free; conditions: read-out: Stability
[15] = molecular target: CYP2C19 (Homo sapiens, UniProt P33261); test: Inhibition of CYP2C19 in human liver microsome at 3 uM pre-incubated with compound for 5 mins followed NADPH addition and measured after 30 mins by LC-MS/MS analysis relative to control; type: ADME; conditions: liver microsomes, time 35 min
Chain of CYP2C19 (P33261 whole entry): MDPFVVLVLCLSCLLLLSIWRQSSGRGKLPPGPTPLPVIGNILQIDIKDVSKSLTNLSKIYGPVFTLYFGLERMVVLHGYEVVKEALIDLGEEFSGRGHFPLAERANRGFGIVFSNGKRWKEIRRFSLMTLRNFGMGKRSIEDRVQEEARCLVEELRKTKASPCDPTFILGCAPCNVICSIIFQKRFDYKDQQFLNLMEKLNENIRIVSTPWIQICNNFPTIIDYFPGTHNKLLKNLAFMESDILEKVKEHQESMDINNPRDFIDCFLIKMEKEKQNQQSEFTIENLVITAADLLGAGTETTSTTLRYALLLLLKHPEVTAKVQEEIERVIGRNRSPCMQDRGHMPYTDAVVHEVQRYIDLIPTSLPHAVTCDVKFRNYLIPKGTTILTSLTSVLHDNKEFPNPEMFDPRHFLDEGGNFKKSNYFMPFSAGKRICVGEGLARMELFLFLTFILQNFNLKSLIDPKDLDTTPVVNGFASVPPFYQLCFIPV

[16] = molecular target: CYP2D6 (Homo sapiens, UniProt P10635); test: Inhibition of CYP2D6 in human liver microsome at 3 uM pre-incubated with compound for 5 mins followed NADPH addition and measured after 10 mins by LC-MS/MS analysis relative to control; conditions: liver microsomes
Chain of CYP2D6 (P10635 whole entry): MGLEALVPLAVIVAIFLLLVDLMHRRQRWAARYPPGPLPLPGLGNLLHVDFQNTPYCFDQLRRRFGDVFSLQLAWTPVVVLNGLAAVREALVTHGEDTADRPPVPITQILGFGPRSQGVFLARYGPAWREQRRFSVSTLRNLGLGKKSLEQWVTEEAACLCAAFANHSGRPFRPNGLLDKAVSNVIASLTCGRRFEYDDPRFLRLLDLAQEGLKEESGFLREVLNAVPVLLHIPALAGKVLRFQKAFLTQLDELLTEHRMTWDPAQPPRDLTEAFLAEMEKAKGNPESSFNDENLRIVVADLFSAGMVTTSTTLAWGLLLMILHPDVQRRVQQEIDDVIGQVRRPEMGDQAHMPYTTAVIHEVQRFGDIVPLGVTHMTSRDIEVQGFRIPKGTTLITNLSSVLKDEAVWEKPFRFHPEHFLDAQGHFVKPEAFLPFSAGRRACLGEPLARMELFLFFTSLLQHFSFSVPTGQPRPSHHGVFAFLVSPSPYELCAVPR

[17] = Metabolic stability in liver microsome (unknown origin) assessed as intrinsic clearance at 0.5 mg/mL measured up to 60 mins by LC-MS/MS analysis; type: ADME; conditions: human, liver microsomes, read-out: CLH
[18] = Metabolic stability in liver microsomes (unknown origin) assessed as half life at 0.5 mg/ml measured up to 60 mins by LC-MS/MS analysis; type: ADME, Microsome; conditions: human
[19] = molecular target: CYP2C9 (Homo sapiens, UniProt P11712); test: Inhibition of CYP2C9 in human liver microsome at 3 uM pre-incubated with compound for 5 mins followed NADPH addition and measured after 10 mins by LC-MS/MS analysis relative to control; conditions: liver microsomes
Chain of CYP2C9 (P11712 whole entry): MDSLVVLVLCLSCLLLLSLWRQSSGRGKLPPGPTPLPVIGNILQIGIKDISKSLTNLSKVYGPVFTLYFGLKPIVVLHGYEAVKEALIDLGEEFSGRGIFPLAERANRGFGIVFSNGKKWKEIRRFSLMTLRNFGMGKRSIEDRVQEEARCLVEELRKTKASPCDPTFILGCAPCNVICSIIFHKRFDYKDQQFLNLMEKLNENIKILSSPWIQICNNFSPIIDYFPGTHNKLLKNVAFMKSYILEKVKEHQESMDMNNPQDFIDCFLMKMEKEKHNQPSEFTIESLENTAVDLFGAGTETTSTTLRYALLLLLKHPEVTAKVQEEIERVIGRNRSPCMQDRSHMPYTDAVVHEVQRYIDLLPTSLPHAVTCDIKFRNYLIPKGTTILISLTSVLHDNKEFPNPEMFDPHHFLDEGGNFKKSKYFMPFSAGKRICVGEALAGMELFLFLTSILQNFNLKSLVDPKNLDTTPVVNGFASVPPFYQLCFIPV

[20] = molecular target: T3, CYP2C8 (Homo sapiens, UniProt P10632); test: Inhibition of CYP2C8 in human liver microsome at 10 uM pre-incubated with compound for 5 mins followed NADPH addition and measured after 5 mins by LC-MS/MS analysis relative to control; type: ADME; conditions: liver microsomes, time 10 min
T3 sequence (P10632 whole entry): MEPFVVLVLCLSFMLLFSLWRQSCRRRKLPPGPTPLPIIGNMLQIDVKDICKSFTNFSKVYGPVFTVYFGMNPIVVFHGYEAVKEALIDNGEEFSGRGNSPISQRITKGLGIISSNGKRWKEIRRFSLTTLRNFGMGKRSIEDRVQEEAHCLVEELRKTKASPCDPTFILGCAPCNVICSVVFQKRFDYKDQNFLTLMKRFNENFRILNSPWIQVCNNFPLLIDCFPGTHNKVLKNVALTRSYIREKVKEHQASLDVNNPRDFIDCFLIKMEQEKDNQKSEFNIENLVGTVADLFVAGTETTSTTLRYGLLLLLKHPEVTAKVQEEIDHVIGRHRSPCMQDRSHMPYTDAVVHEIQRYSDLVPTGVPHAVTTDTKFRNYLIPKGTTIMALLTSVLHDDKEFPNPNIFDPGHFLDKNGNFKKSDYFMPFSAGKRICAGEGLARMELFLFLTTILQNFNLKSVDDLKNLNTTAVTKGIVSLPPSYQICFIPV

[21] = species on record: Homo sapiens; test: Selectivity index, ratio of IC50 for human recombinant CYP1A1 to IC50 for human recombinant CYP1B1 using 7-ethoxyresorufin as substrate
[22] = molecular target: T4, Cytochrome P450 1A1 (Homo sapiens, UniProt P04798); test: Inhibition of human recombinant CYP1A1 using 7-ethoxyresorufin as substrate incubated under dark condition for 15 mins in presence of NADPH by EROD fluorescence assay; type: ADME
T4 sequence (P04798 whole entry): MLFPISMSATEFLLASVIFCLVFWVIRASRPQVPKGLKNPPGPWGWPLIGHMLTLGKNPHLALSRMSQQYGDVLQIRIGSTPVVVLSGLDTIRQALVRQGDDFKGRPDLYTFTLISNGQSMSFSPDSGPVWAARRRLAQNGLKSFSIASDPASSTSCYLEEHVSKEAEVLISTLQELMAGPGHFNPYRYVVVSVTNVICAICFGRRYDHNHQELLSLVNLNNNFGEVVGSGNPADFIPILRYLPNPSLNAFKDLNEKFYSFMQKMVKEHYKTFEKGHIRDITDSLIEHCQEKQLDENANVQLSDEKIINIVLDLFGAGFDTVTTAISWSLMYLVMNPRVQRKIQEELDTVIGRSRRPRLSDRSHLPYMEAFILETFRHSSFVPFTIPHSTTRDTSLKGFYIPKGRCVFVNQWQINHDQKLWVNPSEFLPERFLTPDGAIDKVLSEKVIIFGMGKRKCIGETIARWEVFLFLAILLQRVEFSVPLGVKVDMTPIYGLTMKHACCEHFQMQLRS

[23] = species on record: Homo sapiens; test: Selectivity index, ratio of IC50 for human recombinant CYP1A2 to IC50 for human recombinant CYP1B1 using 7-ethoxyresorufin as substrate
[24] = molecular target: T5, Cytochrome P450 1B1 (Homo sapiens, UniProt Q16678); test: Inhibition of human recombinant CYP1B1 using 7-ethoxyresorufin as substrate incubated under dark condition for 30 mins in presence of NADPH by EROD fluorescence assay; type: ADME
T5 sequence (Q16678 whole entry): T2 sequence (Q16678 whole entry)

| IC50 [6] | inhibition at 0.5 h, 100 µM [8] | Ratio IC50 [21] | IC50 [22] | Ratio IC50 [23] | IC50 [24] | SMILES | further results |
| --- | --- | --- | --- | --- | --- | --- | --- |
| 221 nM | 86.7% | 11.7 | 280 nM | 9.2 | 24 nM | O=C(Nc1ccc(F)cc1)c1nc(-c2ccccc2)cs1 |  |
| 465 nM | 82.2% | 9 | 215 nM | 19.4 | 23.9 nM | O=C(Nc1cccc(F)c1)c1nc(-c2ccccc2)cs1 |  |

Second part, the compound before the results:

| SMILES | IC50 [6] | inhibition at 0.5 h, 100 µM [8] | Ratio IC50 [21] | IC50 [22] | Ratio IC50 [23] | IC50 [24] | further results |
| --- | --- | --- | --- | --- | --- | --- | --- |
| CC(=O)O[C@H]1C(=O)[C@@]2(C)[C@H]([C@H](OC(=O)c3ccccc3)[C@]3(O)C[C@H](OC(=O)[C@H](O)[C@@H](NC(=O)c4ccccc4)c4ccccc4)C(C)=C1C3(C)C)[C@]1(OC(C)=O)CO[C@@H]1C[C@@H]2O [PACLITAXEL] |  |  |  |  |  |  | Ratio IC50 [1]: 263.8; IC50 [2]: 31.4 nM; IC50 [3]: 8290 nM |
| COc1cc(/C=C/c2ccc(OC)cc2OC)cc(OC)c1 | 1940 nM | 103% |  |  |  |  | IC50 [2]: 7900 nM; Activity [4]: 40.2%; Activity [5]: 12.6%; IC50 at 48 h [7]: > 40000 nM; IC50 at 48 h [9]: 2900 nM |
| CC(C)[N+](C)(CCOC(=O)C1c2ccccc2Oc2ccccc21)C(C)C [PROPANTHELINE BROMIDE] |  |  |  |  |  |  | remaining at 0.25 h, 100 µM [10]: 66.5%; remaining at 2 h, 100 µM [11]: 1.7%; remaining at 5 min, 100 µM [12]: 90.7%; remaining at 1 h, 100 µM [13]: 11.6%; remaining at 0.5 h, 100 µM [14]: 41.3% |
| CCC1(c2ccccc2)NC(=O)N(Cc2ccccc2)C1=O (configuration not stated) |  |  |  |  |  |  | inhibition at 0.5 h, 3 µM [15]: 89.8% |
| C=C[C@H]1C[N@@]2CC[C@H]1C[C@@H]2[C@@H](O)c1ccnc2ccc(OC)cc12 [QUINIDINE] |  |  |  |  |  |  | inhibition at 10 min, 3 µM [16]: 89.3% |
| O=C(O)Cc1ccccc1Nc1c(Cl)cccc1Cl [DICLOFENAC] |  |  |  |  |  |  | CLint scaled [17]: 226 mL/min/kg; half-life [18]: 5.5 min |
| Nc1ccc(S(=O)(=O)Nc2ccnn2-c2ccccc2)cc1 [SULFAPHENAZOLE] |  |  |  |  |  |  | inhibition at 10 min, 3 µM [19]: 79% |
| O=c1c(O)c(-c2ccc(O)c(O)c2)oc2cc(O)cc(O)c12 [QUERCETIN] |  |  |  |  |  |  | inhibition at 5 min, 10 µM [20]: 77.2% |
| O=C(Nc1ccc(OC(F)(F)F)cc1)c1nc(-c2ccccc2)cs1 | 472 nM | 92.2% | 28.6 | 213 nM | 63.4 | 7.45 nM |  |
| COc1ccc(NC(=O)c2nc(-c3ccccc3)cs2)cc1 | 899 nM | 95% | 42 | 470 nM | 80.2 | 11.2 nM |  |
| O=C(Nc1ccc(OC(F)F)cc1)c1nc(-c2ccccc2)cs1 | 679 nM | 100% | 808 | 210 nM | 2610 | 0.26 nM |  |
| N#Cc1ccc(NC(=O)c2nc(-c3ccccc3)cs2)cc1 | 563 nM | 99.3% | 113 | 870 nM | 73.4 | 7.68 nM |  |

Reference: ChEMBL document CHEMBL6182948 (J Med Chem, 2025)
